Source: US9663475B2, “2 amino-3,4-dihydrcquinazoline derivatives and the use thereof as cathepsin D inhibitors” (Merck Patent GmbH, priority 2013, dated 2017)
Non-standard residues stand in square brackets, D forms with d. Residues, ends and D or L forms follow the SMILES beside them. *: point of attachment. Sta = CC(C)C[C@H](N)[C@@H](O)CC(=O)O; Isovaleryl = CC(C)CC(=O)*

Biological target: cathepsin D isolated from the human liver (Homo sapiens (Human), UniProt P07339)
Assay: In-vitro fluorescence assay for identification of cathepsin D inhibitors
Assay type: biochemical
Details: human liver cathepsin D 1.4 nM, pH 5.5, substrate 5 μM; read-out: Cath D IC50
Method: In order to identify modulators of cathepsin D activity, a continuous enzymatic test was carried out with a synthetic peptide which carries a fluorescent group (MCA=(7-methoxycoumarin-4-yl)acetyl) which is quenched by energy transfer from a Dpn (2,4 dinitrophenyl) group on the same molecule, in Greiner 384-well nb microtitre plates. Cleavage of the peptidic substrate by cathepsin D causes an increase in the fluorescence intensity. In order to determine the efficacy of substances, the time-dependent increase in the fluorescence intensity in the presence of the substance was compared with the time-dependent increase in fluorescence in the absence of substances. The reference substance used was pepstatin A (Sigma-Aldrich). The substrate used was MCA-GKPILFFRLK(Dnp)d-R—NH2 (Enzo Life Sciences, Lörach). The enzyme employed was cathepsin D isolated from the human liver (Sigma-Aldrich) in a final concentration of 1.4 nM. The test was carried out in 100 mM sodium acetate buffer, 1.25% (v/v) of DMSO, 0.25% (w/v) of Chaps, pH 5.5. 2 μl of each substance solution with serially diluted substance concentration were added to in each case 4 μl of cathepsin D solution and incubated at room temperature for 10 min. The reaction was started by addition of 2 μl of substrate solution (final concentration 5 μM). After carrying out a starting-point fluorescence measurement (excitation wavelength 340 nm/emission wavelength 450 nm) using an Envision multilabel reader (Perkin Elmer), the reaction was incubated at room temperature for 60 min. The amount of peptide fragment cleaved off during the reaction time was subsequently measured by determination of the increase in the fluorescence intensity at 450 nm (excitation wavelength 340 nm).
The IC50 values of the compounds according to the invention can be obtained from Table 2 from Example 1.

Chain of cathepsin D isolated from the human liver (P07339 65-161): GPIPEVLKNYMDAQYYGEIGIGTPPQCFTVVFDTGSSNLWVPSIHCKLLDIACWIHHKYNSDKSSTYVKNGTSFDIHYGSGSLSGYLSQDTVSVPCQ
Chain of cathepsin D isolated from the human liver (P07339 169-412): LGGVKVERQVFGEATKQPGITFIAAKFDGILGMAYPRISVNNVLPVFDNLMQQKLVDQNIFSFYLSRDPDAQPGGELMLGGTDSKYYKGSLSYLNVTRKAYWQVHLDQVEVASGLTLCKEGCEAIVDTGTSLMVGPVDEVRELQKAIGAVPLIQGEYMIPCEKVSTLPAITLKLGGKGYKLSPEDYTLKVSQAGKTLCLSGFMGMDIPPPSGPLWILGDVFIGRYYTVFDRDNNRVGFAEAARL

Row | SMILES | IC50 [nM]
1 | COc1ccc2c(c1)C[C@@H](N1Cc3ccc(C(F)(F)F)cc3N=C1N)C2 (single isomer, unassigned) [Compound A18] | 270
2 | COc1ccc2c(c1)C[C@H](N1Cc3ccc(C(F)(F)F)cc3N=C1N)C2 (single isomer, unassigned) [Compound A19] | 320
3 | NC1=Nc2ccccc2CN1C1Cc2ccccc2C1 [Compound A2, 3-indan-2-yl-3,4-dihydroquinazolin-2-ylamine] | 2300
4 | NC1=Nc2cc(Cl)ccc2CN1C1Cc2ccccc2C1 [Compound A3, 7-chloro-3-indan-2-yl-3,4-di hydroquinazolin-2-ylamine] | 960
5 | COc1cc2c(cc1OC)CC(N1Cc3ccc(Cl)cc3N=C1N)C2 [Compound A8, 7-chloro-3-(5,6-dimethoxyindan-2-yl)-3,4-dihydroquinazolin-2-ylamine] | 1100
6 | COc1cc2c(cc1OC)CC(N1Cc3ccc(Cl)cc3N=C1N)C2 [Compound A9, 7-chloro-3-(5,6-dimethoxyindan-2-yl)-3,4-dihydroquinazolin-2-ylamine] | 510
7 | NC1=Nc2cc(C(F)(F)F)ccc2CN1C1Cc2ccccc2C1 [Compound A10, 3-indan-2-yl-7-trifluoromethyl-3,4-dihydroquinazolin-2-ylamine] | 300
8 | COc1ccc2c(c1OC)CC(N1Cc3ccc(Cl)cc3N=C1N)C2 (stereo not shown) [Compound A11, 7-chloro-3-(4,5-dimethoxyindan-2-yl)-3,4-dihydroquinazolin-2-ylamine] | 780
9 | NC1=Nc2cc(C(F)(F)F)ccc2CN1C1c2ccccc2-c2ccccc21 [Compound A15, 3-(9H-fluoren-9-yl)-7-trifluoromethyl-3,4-dihydroquinazolin-2-ylamine] | 1200
10 | NC1=Nc2cc(C(F)(F)F)ccc2CN1C1CCc2ccccc2C1 (stereo not shown) [Compound A20, 3-(1,2,3,4-tetrahydronaphthalen-2-yl)-7-trifluoromethyl-3,4-dihydroquinazolin-2-ylamine] | 3800
11 | CCN(CC)C(=O)c1ccc2c(c1)N=C(N)N(C1Cc3ccccc3C1)C2 [Compound A24, N,N-diethyl-2-amino-3-indan-2-yl-3,4-dihydroquinazoline-7-carboxamide] | 4200
12 | NC1=Nc2cc(C(=O)N3CCOc4ccccc43)ccc2CN1C1Cc2ccccc2C1 [Compound A30, (2-amino-3-indan-2-yl-3,4-dihydroquinazolin-7-yl)-(2,3-dihydrobenzo[1,4]oxazin-4-yl)methanone] | 240

The remaining lines, values ahead:

Row | IC50 [nM] | SMILES
13 | 170 | COc1ccc2c(c1)CC(N1Cc3ccc(C(F)(F)F)cc3N=C1N)C2 (racemic) [Compound A16, 3-(5-methoxyindan-2-yl)-7-trifluoromethyl-3,4-dihydroquinazolin-2-ylamine]
14 | 2700 | NC1=Nc2ccccc2CN1C1Cc2ccccc2C1 [Compound A1, 3-indan-2-yl-3,4-dihydroquinazolin-2-ylamine]
15 | 8400 | NC1=Nc2cccc(Cl)c2CN1C1Cc2ccccc2C1 [Compound A4, 5-chloro-3-indan-2-yl-3,4-di hydroquinazolin-2-ylamine]
16 | 2200 | NC1=Nc2cc(-c3ccccc3)ccc2CN1C1Cc2ccccc2C1 [Compound A5, 3-indan-2-yl-7-phenyl-3,4-dihydroquinazolin-2-ylamine]
17 | 1400 | NC1=Nc2cc(Cl)ccc2CN1C1CCCc2ccccc21 (stereo not shown) [Compound A6, 7-chloro-3-(1,2,3,4-tetrahydronaphthalen-1-yl)-3,4-dihydroquinazolin-2-ylamine]
18 | 140 | CCCc1ccc2c(c1)N=C(N)N(C1Cc3ccccc3C1)C2 [Compound A7, 3-indan-2-yl-7-propyl-3,4-dihydroquinazolin-2-ylamine]
19 | 810 | COc1cccc2c1CC(N1Cc3ccc(Cl)cc3N=C1N)C2 (stereo not shown) [Compound A12, 7-chloro-3-(4-methoxyindan-2-yl)-3,4-dihydroquinazolin-2-ylamine]
20 | 2500 | NC1=Nc2cc(C(F)(F)F)ccc2CN1C1CCc2ccccc21 (stereo not shown) [Compound A13, 3-indan-1-yl-7-trifluoromethyl-3,4-dihydroquinazolin-2-ylamine]
21 | 620 | COc1ccc2c(c1)CC(N1Cc3ccc(Cl)cc3N=C1N)C2 (stereo not shown) [Compound A14, 7-chloro-3-(5-methoxyindan-2-yl)-3,4-dihydroquinazolin-2-ylamine]
22 | 270 | CCc1ccc2c(c1)N=C(N)N(C1Cc3ccc(OC)cc3C1)C2 (stereo not shown) [Compound A17, 7-ethyl-3-(5-methoxyindan-2-yl)-3,4-dihydroquinazolin-2-ylamine]
23 | 220 | NC1=Nc2cc(C(=O)N3CCc4ccccc43)ccc2CN1C1Cc2ccccc2C1 [Compound A21, (2-amino-3-indan-2-yl-3,4-dihydroquinazolin-7-yl)-(2,3-dihydroindol-1-yl)methanone]
24 | 180 | COc1ccc2c(c1)CN(C(=O)c1ccc3c(c1)N=C(N)N(C1Cc4ccccc4C1)C3)C2 [Compound A22, (2-amino-3-indan-2-yl-3,4-dihydroquinazolin-7-yl)-(5-methoxy-1,3-dihydroisoindol-2-yl)methanone]
25 | 2900 | CCN(CC)C(=O)c1ccc2c(c1)N=C(N)N(C1Cc3ccccc3C1)C2 [Compound A23, N,N-diethyl-2-amino-3-indan-2-yl-3,4-dihydroquinazoline-7-carboxamide]
26 | 2500 | NC1=Nc2cc(C(=O)N3CCOCC3)ccc2CN1C1Cc2ccccc2C1 [Compound A25, (2-amino-3-indan-2-yl-3,4-dihydroquinazolin-7-yl)morpholin-4-ylmethanone]
27 | 3000 | NC1=Nc2cc(C(=O)N3CCOCC3)ccc2CN1C1Cc2ccccc2C1 [Compound A26, (2-amino-3-indan-2-yl-3,4-dihydroquinazolin-7-yl)morpholin-4-ylmethanone]
28 | 3300 | Nc1nc2cc(C(F)(F)F)ccc2c(=O)n1C1Cc2ccccc2C1 [Compound A27, 2-amino-3-indan-2-yl-7-trifluoromethyl-3H-quinazolin-4-one]
29 | 24000 | NNc1nc2cc(C(F)(F)F)ccc2c(=O)n1C1Cc2ccccc2C1 [Compound A28, 2-hydrazino-3-indan-2-yl-7-trifluoromethyl-3H-quinazolin-4-one]
30 | 310 | NC1=Nc2cc(C(=O)N3CCCC3Cc3ccccc3)ccc2CN1C1Cc2ccccc2C1 (stereo not shown) [Compound A29, (2-amino-3-indan-2-yl-3,4-dihydroquinazolin-7-yl)-(2-benzylpyrrolidin-1-yl)methanone]
31 | 2500 | CO[C@@H]1c2ccccc2C[C@@H]1N1Cc2ccc(C(F)(F)F)cc2NC1=N [Compound A31, 3-((1R,2S)-1-methoxyindan-2-yl)-7-trifluoromethyl-3,4-dihydro-1H-quinazolin-2-ylidenamine]

Test system: not listed separately
Assay: Stability in plasma (h/r/m) or at pH 1.2 or pH 7.4
Assay type: in vitro ADME
Details: recovery after 4 h
Method: Stable: Recovery 75% after 4 h.

Row | Stability in plasma (h/r/m) or at pH 1.2 or pH 7.4 | SMILES
32 | stab;e | COc1ccc2c(c1)CC(N1Cc3ccc(C(F)(F)F)cc3N=C1N)C2 (racemic) [Compound A16, 3-(5-methoxyindan-2-yl)-7-trifluoromethyl-3,4-dihydroquinazolin-2-ylamine]
33 | stable (Stable: Recovery 75% after 4 h.) | NC1=Nc2ccccc2CN1C1Cc2ccccc2C1 [Compound A1, 3-indan-2-yl-3,4-dihydroquinazolin-2-ylamine]
34 | stable (Stable: Recovery 75% after 4 h.) | CCCc1ccc2c(c1)N=C(N)N(C1Cc3ccccc3C1)C2 [Compound A7, 3-indan-2-yl-7-propyl-3,4-dihydroquinazolin-2-ylamine]
35 | stable (Stable: Recovery 75% after 4 h.) | NC1=Nc2cc(C(F)(F)F)ccc2CN1C1Cc2ccccc2C1 [Compound A10, 3-indan-2-yl-7-trifluoromethyl-3,4-dihydroquinazolin-2-ylamine]
36 | stable (Stable: Recovery 75% after 4 h.) | COc1ccc2c(c1)CC(N1Cc3ccc(Cl)cc3N=C1N)C2 (stereo not shown) [Compound A14, 7-chloro-3-(5-methoxyindan-2-yl)-3,4-dihydroquinazolin-2-ylamine]
37 | stable (Stable: Recovery 75% after 4 h.) | CCc1ccc2c(c1)N=C(N)N(C1Cc3ccc(OC)cc3C1)C2 (stereo not shown) [Compound A17, 7-ethyl-3-(5-methoxyindan-2-yl)-3,4-dihydroquinazolin-2-ylamine]

Test system: rat knee joint
Assay: Anti-hyperalgesic effect in animals: carrageenan-induced knee joint inflammation, swelling and Hargreaves test
Assay type: in vivo
Details: intra-articular, 30 minutes before CAR, TAC 10 μg/joint
Method: In order to induce an inflammation reaction, a carrageenan solution (CAR, 1%, 50 μl) was injected intra-articularly on one side into a rat knee joint. The uninjected side was used for control purposes. Six animals per group were used. The threshold was determined by means of a micrometer screw (medial-lateral on the knee joint), and the thermal hyperalgesia was determined by means of a directed infrared light source by the Hargreaves method (Hargreaves et al., 1988) on the sole of the foot. […] Experimental description of thermal hyperalgesia (Hargreaves test): the experimental animal is placed in a plastic chamber on a quartz sheet. Before testing, the experimental animal is firstly given about 5-15 minutes time to familiarise itself with the environment. As soon as the experimental animal no longer moves so frequently after the familiarisation phase (end of the exploration phase), the infrared light source, whose focus is in the plane of the glass bottom, is positioned directly beneath the rear paw to be stimulated. […] Light reflected by the paw is recorded as long as the experimental animal sits still. Withdrawal of the paw interrupts this reflection, after which the infrared light source is switched off and the time from switching on to switching off is recorded. […]

Row | SMILES | reduction of CAR-induced swelling
38 | C[C@]12C=CC(=O)C=C1CC[C@H]1[C@@H]3C[C@@H](O)[C@](O)(C(=O)CO)[C@@]3(C)C[C@H](O)[C@@]12F [TAC, Triamcinolone] | capable of reducing the CAR-induced swelling

Test system: cartilage explant cultures
Assay: not given
Details: pH 5.5, explant cultures (mouse, cow or human); cited from earlier work

Row | SMILES | inhibition of autodigestion of the cartilage
39 | CC(C)CC(=O)N[C@H](C(=O)N[C@H](C(=O)N[C@@H](CC(C)C)[C@@H](O)CC(=O)N[C@@H](C)C(=O)N[C@@H](CC(C)C)[C@@H](O)CC(=O)O)C(C)C)C(C)C [pepstatin] (Isovaleryl-VV[Sta]A[Sta]-OH) | inhibited virtually completely
40 | CC(C)c1nc(CN(C)C(=O)N[C@H](C(=O)N[C@@H](Cc2ccccc2)C[C@H](O)[C@H](Cc2ccccc2)NC(=O)OCc2cncs2)C(C)C)cs1 [ritonavir] | inhibited virtually completely
